Data published in patent US11384142B2, “Combination therapy for the treatment of ovarian cancer” (Hoffmann-La Roche Inc., priority 2012, dated 2022).

Test system: platinum-resistant ovarian cancer (epithelial ovarian, fallopian tube or primary peritoneal cancer)
Experiment: AURELIA Phase III trial, efficacy (PFS by RECIST, ORR)
Assay type: in vivo, human
Details: for PFS Events, % / PFS Median, mo / ORR, %: by chemotherapy cohort; for ORR, %: overall response rate (RECIST and/or CA-125)
Excerpt: The AURELIA trial evaluated the efficacy and safety of bevacizumab in combination with chemotherapy for platinum-resistant ovarian cancer. This study was designed as a prospective, open-label, randomised, two-arm Phase III evaluation of bevacizumab plus chemotherapy versus chemotherapy alone. To be eligible, patients must have ovarian cancer that progressed within 6 months of previous platinum-based therapy. Paclitaxel, topotecan or pegylated liposomal doxorubicin (PLD) was selected as chemotherapeutic combination partners since they are commonly used for treatment of platinum-resistant disease. By adding bevacizumab to chemotherapy, the AURELIA trial aimed to improve PFS for this group of patients who have limited therapeutic options and face a particularly poor prognosis. The primary objective was to compare progression-free survival (PFS) of patients randomised to selected chemotherapy only or to selected chemotherapy plus bevacizumab.
Study Design—This trial consisted of two (2) treatment arms: chemotherapy-alone (Arm 1) and chemotherapy plus bevacizumab (Arm 2). Patients were randomly assigned (1:1) to either arm, see FIG. 1.
Eligible patients received one of the following chemotherapies on a 4-week cycle at the discretion of the investigator: • a. Paclitaxel 80 mg/m^2 as a 1-hour i.v. infusion on days 1, 8, 15 and 22 q4w. • b. Topotecan 4 mg/m^2 as a 30 minute i.v. infusion on days 1, 8 and 15 q4w. Alternatively, a 1.25 mg/m^2 dose can be administered over 30 minutes on days 1-5 every three weeks. • c. Pegylated liposomal doxorubicin 40 mg/m^2 as a 1 mg/min i.v. infusion on day 1 only, q4w. After cycle 1, the drug can be delivered as a 1 h infusion.
The chemotherapy was selected from one of those described in Arm 1 at the discretion of the investigator. The chosen chemotherapy was initially combined with bevacizumab 10 mg/kg i.v. every two weeks (or 15 mg/kg every three weeks if used in combination with topotecan 1.25 mg/m^2 on days 1-5 of a every three weeks schedule). The initial bevacizumab infusion was over 90 minutes, with subsequent infusions over 60 minutes and then 30 minutes, as tolerated. Bevacizumab was administered before the chemotherapy at the first cycle and then administered prior or after the chemotherapy at subsequent cycles. In case chemotherapy was completed before diagnosis of progressive disease, patients continued to receive bevacizumab as either: (a) 10 mg/kg i.v. every two weeks; or (b) 15 mg/kg every three weeks if topotecan was selected and administered at a dose of 1.25 mg/m^2 on days 1-5 of a every three weeks schedule. After disease progression, patients received standard of care treatment.
Analyses of PFS and ORR was based on tumour assessments (based on RECIST criteria) using cross sectional imaging (preferably by CT or MRI in case of contrast allergy) of the pelvis and abdomen and (by X-ray or preferably by CT-scan) of the chest. The same assessment technique was used throughout the study to evaluate a particular lesion.
Tumour assessments were performed at baseline then every 8 weeks (every 9 weeks for patients treated with 1.25 mg/m^2 topotecan on days 1-5 of a every three weeks cycle). Responses were confirmed by a second CT scan performed not earlier than 4 weeks after the criteria for response were first met.
Progressive serial elevation of serum CA-125 were used to determine CA-125 response and biological progression-free interval (PFIbio). Overall survival was measured from the date of randomisation to the date of death from any cause.
Eligible patients had ovarian cancer (measurable by RECIST 1.0 or assessable) that had progressed ≤6 mo after ≥4 cycles of platinum-based therapy. Patients with refractory ovarian cancer, history of bowel obstruction or >2 prior anticancer regimens were ineligible. […]

`CC[C@@]1(O)C(=O)OCc2c1cc1n(c2=O)Cc2cc3c(CN(C)C)c(O)ccc3nc2-1` [TOP CT, topotecan] was tested, and the “PFS Events, %” value was 89%, the “PFS Median, mo” value was 2.1 mo and the “ORR, %” value was 3.3%.

For `CC(=O)O[C@H]1C(=O)[C@@]2(C)[C@H]([C@H](OC(=O)c3ccccc3)[C@]3(O)C[C@H](OC(=O)[C@H](O)[C@@H](NC(=O)c4ccccc4)c4ccccc4)C(C)=C1C3(C)C)[C@]1(OC(C)=O)CO[C@@H]1C[C@@H]2O` [PAC CT, paclitaxel], the “PFS Events, %” value was 89%, the “PFS Median, mo” value was 3.9 mo and the “ORR, %” value was 28.8%.

B1: bevacizumab (antibody, V domains shown)
VH: EVQLVESGGGLVQPGGSLRLSCAASGYTFTNYGMNWVRQAPGKGLEWVGWINTYTGEPTYAADFKRRFTFSLDTSKSTAYLQMNSLRAEDTAVYYCAKYPHYYGSSHWYFDVWGQGTLVTVSS
VL: DIQMTQSPSSLSASVGDRVTITCSASQDISNYLNWYQQKPGKAPKVLIYFTSSLHSGVPSRFSGSGSGTDFTLTISSLQPEDFATYYCQQYSTVPWTFGQGTKVEIKR
modifications: amino acid sequence of humanized antibody variable heavy chain; amino acid sequence of humanized antibody variable light chain
notes: recombinant humanized anti-VEGF monoclonal antibody
In the case of B1, the “overall response rate (ORR) by RECIST, CA-125 or both (FIG. 3)” value (bevacizumab added to chemotherapy vs chemotherapy alone) is reported as “increased the overall response rate (ORR)”.
